Structures are written as SMILES. Some results are limits rather than exact numbers.

For `CC1(C(=O)c2c[nH]c3ncc(Br)nc23)CCCC1` [Example 166, (2-Bromo-5H-pyrrolo[2,3-b]pyrazin-7-yl)-(1-methyl-cyclopentyl)-methanone], the melting point lay in the range of 206.9 to 207.9 °C.

The compound `CC1(C(=O)c2c[nH]c3ncc(-c4cccc(N5CCCC5)c4)nc23)CCCC1` [Example 167, (1-Methyl-cyclopentyl)-[2-(3-pyrrolidin-1-yl-phenyl)-5H-pyrrolo[2,3-b]pyrazin-7-yl]-methanone] yielded a melting point of 242 to 243 °C.

The compound `COc1cc(-c2cnc3[nH]cc(C(=O)C4(C)CCCC(C)C4)c3n2)cc(OC)c1OC` (centres unmarked) [Example 169, (1,3-Dimethyl-cyclohexyl)-[2-(3,4,5-trimethoxy-phenyl)-5H-pyrrolo[2,3-b]pyrazin-7-yl]-methanone] came in with a melting point of 229 to 231 °C.

`CN1CCN(c2ccc(-c3cnc4[nH]cc(C(=O)C5(C)CCCCC5)c4n3)cc2)CC1` [Example 170, (1-Methyl-cyclohexyl)-{2-[4-(4-methyl-piperazin-1-yl)-phenyl]-5H-pyrrolo[2,3-b]pyrazin-7-yl}-methanone] returned a melting point of 225 to 226 °C.

For the compound `CNc1ccc(-c2cnc3[nH]cc(C(=O)C4(C)CCCCC4)c3n2)cc1` [Example 171, [2-(4-Methylamino-phenyl)-5H-pyrrolo[2,3-b]pyrazin-7-yl]-(1-methyl-cyclohexyl)-methanone], the melting point fell in the range of 273 to 275 °C.

`CC1(C(=O)c2c[nH]c3ncc(-c4ccc(N5CCOCC5)cc4)nc23)CCCCC1` [Example 172, (1-Methyl-cyclohexyl)-[2-(4-morpholin-4-yl-phenyl)-5H-pyrrolo[2,3-b]pyrazin-7-yl]-methanone]: the melting point was in the range of 233 to 235 °C.

`CCN(CC)c1ccc(-c2cnc3[nH]cc(C(=O)C4(C)CCCCC4)c3n2)cc1` [Example 173, [2-(4-Diethylamino-phenyl)-5H-pyrrolo[2,3-b]pyrazin-7-yl]-(1-methyl-cyclohexyl)-methanone]: the melting point lay in the range of 211 to 213 °C.

On to `CC1(C(=O)c2c[nH]c3ncc(-c4ccc(N5CCCCC5)cc4)nc23)CCCCC1` [Example 174, (1-Methyl-cyclohexyl)-[2-(4-piperidin-1-yl-phenyl)-5H-pyrrolo[2,3-b]pyrazin-7-yl]-methanone], for which the melting point fell in the range of 234 to 236 °C.

In turn, `CC(C)(C)OC(=O)N1CCN(c2cccc(-c3cnc4[nH]cc(C(=O)C5(C)CCCCC5)c4n3)c2)CC1` [Example 175, 4-{3-[7-(1-Methyl-cyclohexanecarbonyl)-5H-pyrrolo[2,3-b]pyrazin-2-yl]-phenyl}-piperazine-1-carboxylic acid tert-butyl ester] came in with a melting point of 212 to 213 °C.

In turn, `CC1(C(=O)c2c[nH]c3ncc(-c4cccc(N5CCN(C(=O)CC#N)CC5)c4)nc23)CCCCC1` [Example 178, 3-(4-{3-[7-(1-Methyl-cyclohexanecarbonyl)-5H-pyrrolo[2,3-b]pyrazin-2-yl]-phenyl}-piperazin-1-yl)-3-oxo-propionitrile] registered a melting point of 214 to 216 °C.

In the case of `CC1(C(=O)c2c[nH]c3ncc(-c4cccc(N5CCN(C(=O)C6CCNCC6)CC5)c4)nc23)CCCCC1` [Example 180, (1-Methyl-cyclohexyl)-(2-{3-[4-(piperidine-4-carbonyl)-piperazin-1-yl]-phenyl}-5H-pyrrolo[2,3-b]pyrazin-7-yl)-methanone], the melting point was > 300 °C.

On to `CC1(C(=O)c2c[nH]c3ncc(-c4cccc(N5CCN(S(C)(=O)=O)CC5)c4)nc23)CCCCC1` [Example 181, {2-[3-(4-Methanesulfonyl-piperazin-1-yl)-phenyl]-5H-pyrrolo[2,3-b]pyrazin-7-yl}-(1-methyl-cyclohexyl)-methanone], for which the melting point lay within 230 to 231 °C.

As for `CC1(C(=O)c2c[nH]c3ncc(-c4cccc(N5CCN(S(N)(=O)=O)CC5)c4)nc23)CCCCC1` [Example 183, 4-{3-[7-(1-Methyl-cyclohexanecarbonyl)-5H-pyrrolo[2,3-b]pyrazin-2-yl]-phenyl}-piperazine-1-sulfonic acid amide], the melting point is 233 to 235 °C.

The compound `CC1(C(=O)c2c[nH]c3ncc(-c4ccc(N5CCNCC5)cc4)nc23)CCCCC1` [Example 185, (1-Methyl-cyclohexyl)-[2-(4-piperazin-1-yl-phenyl)-5H-pyrrolo[2,3-b]pyrazin-7-yl]-methanone] came in with a melting point of 214 to 216 °C.

Compound `CC(=O)N1CCN(c2ccc(-c3cnc4[nH]cc(C(=O)C5(C)CCCCC5)c4n3)cc2)CC1` [Example 186, 1-(4-{4-[7-(1-Methyl-cyclohexanecarbonyl)-5H-pyrrolo[2,3-b]pyrazin-2-yl]-phenyl}-piperazin-1-yl)-ethanone] displayed a melting point of 278 to 284.9 °C.

On to `COc1cc(-c2cnc3[nH]cc(C(=O)C4(C)CCC(O)CC4)c3n2)cc(OC)c1OC` (centres unmarked) [Example 191, (4-Hydroxy-1-methyl-cyclohexyl)-[2-(3,4,5-trimethoxy-phenyl)-5H-pyrrolo[2,3-b]pyrazin-7-yl]-methanone], for which the melting point was 242 to 244 °C.

The compound `CN(C)C1CCN(c2cccc(-c3cnc4[nH]cc(C(=O)C(C)(C)C)c4n3)c2)C1` (centres unmarked) [Example 202, 1-{2-[3-(3-Dimethylamino-pyrrolidin-1-yl)-phenyl]-5H-pyrrolo[2,3-b]pyrazin-7-yl}-2,2-dimethyl-propan-1-one] showed a melting point of 204 to 206 °C.

The compound `CCNC1CCN(c2cccc(-c3cnc4[nH]cc(C(=O)C(C)(C)C)c4n3)c2)C1` (centres unmarked) [Example 208, 1-{2-[3-(3-Ethylamino-pyrrolidin-1-yl)-phenyl]-5H-pyrrolo[2,3-b]pyrazin-7-yl}-2,2-dimethyl-propan-1-one] displayed a melting point of 200 to 202 °C.

Compound `COC(=O)C1(C)CCN(c2cccc(-c3cnc4[nH]cc(C(=O)C(C)(C)C)c4n3)c2)C1` (centres unmarked) [Example 209, 1-{3-[7-(2,2-Dimethyl-propionyl)-5H-pyrrolo[2,3-b]pyrazin-2-yl]-phenyl}-3-methyl-pyrrolidine-3-carboxylic acid methyl ester] displayed a melting point of 198 to 200 °C.

`CNC(=O)C1(C)CCN(c2cccc(-c3cnc4[nH]cc(C(=O)C(C)(C)C)c4n3)c2)C1` (centres unmarked) [Example 210, 1-{3-[7-(2,2-Dimethyl-propionyl)-5H-pyrrolo[2,3-b]pyrazin-2-yl]-phenyl}-3-methyl-pyrrolidine-3-carboxylic acid methylamide] displayed a melting point of 252 to 254 °C.

As to `CC1(N)CCN(c2cccc(-c3cnc4[nH]cc(C(=O)C(C)(C)C)c4n3)c2)C1` (centres unmarked) [Example 212, 1-{2-[3-(3-Amino-3-methyl-pyrrolidin-1-yl)-phenyl]-5H-pyrrolo[2,3-b]pyrazin-7-yl}-2,2-dimethyl-propan-1-one], the melting point is 216 to 218 °C.

On to `COc1cc(-c2cnc3[nH]cc(C(=O)C4(C)CCC(=O)C4)c3n2)cc(OC)c1OC` (centres unmarked) [Example 214, 3-Methyl-3-[2-(3,4,5-trimethoxy-phenyl)-5H-pyrrolo[2,3-b]pyrazine-7-carbonyl]-cyclopentanone], for which the melting point lay in the range of 238 to 240 °C.

`CC1(C(=O)c2c[nH]c3ncc(-c4cccc(N5CCCC5)c4)nc23)CC[C@@H]2CCC[C@@H]21` (stereo partly drawn) [Example 215, ((3aS,6aS)-1-Methyl-octahydro-pentalen-1-yl)-[2-(3-pyrrolidin-1-yl-phenyl)-5H-pyrrolo[2,3-b]pyrazin-7-yl]-methanone]: the melting point fell in the range of 200 to 202 °C.

The record behind these values is US8008298B2, “Pyrrolopyrazine kinase inhibitors” (Roche Palo Alto, priority 2008, dated 2011).
